Measured values published in PMC12045974, “T cell toxicity induced by tigecycline binding to the mitochondrial ribosome” (Nature Communications, 2025).

Test system: 55S mitochondrial ribosomes (mitoribosomes) from Jurkat T cells
Test: Single-particle cryo-EM of mitoribosome-tigecycline complex
Format: binding, human
Conditions: 30 µM
Procedure: Jurkat T cells were grown in RPM1-1640 medium ( + 10% FBS, 2.05 mM L-glutamine (Sigma), and 55 μM 2-ME (Gibco)) in a vented flask shaking at 120 rpm at 37 °C under 5% CO2. The culture was scaled up by splitting at a cell density of 1.6 × 10^6 cells/ml. A final volume of 1.5-liter cells at a density of 1 × 10^6 cells/ml was harvested by centrifugation at 1000 x g for 10 min at 4 °C. After being washed with cold PBS buffer, the cell pellet was resuspended in the cold hypotonic MSE buffer (with 0.6 M mannitol, 10 mM Tris–HCl pH 7.4, 1 mM EDTA, 0.1% BSA), and ruptured on ice by a semi-automatic homogenizer (Schuett-biotech). The lysate was clarified by centrifugation at 400 x g and 4 °C for 10 min. The pellet was resuspended and subsequently homogenized. After 3 cycles of homogenization-centrifugation, the cell lysates were combined and the mitochondria were pelleted by additional centrifugation at 11,000 x g and 4 °C for 10 min. […]
The purified mitochondria were thawed and lysed by incubating at 4 °C for 30 min in the lysis buffer (25 mM HEPES–KOH pH 7.5, 20 mM Mg(OAc)2, 50 mM KCl, 2% (vol/vol) Triton X-100, 2 mM Dithiothreitol (DTT), 1× cOmplete EDTA-free protease inhibitor cocktail (Roche), 40 U/μl RNase inhibitor (Invitrogen)). […] The concentration of the purified monosomes was quantified by nanodrop. […]

CN(C)c1cc(NC(=O)CNC(C)(C)C)c(O)c2c1C[C@H]1C[C@H]3[C@H](N(C)C)C(O)=C(C(N)=O)C(=O)[C@@]3(O)C(O)=C1C2=O [Tigecycline, tigecycline]
occupancy on the mitoribosome (mtSSU and mtLSU site-1, P-site-only class): exceeding 80%
binding sites on the mitoribosome (one on the mtSSU, two on the mtLSU): three densities corresponding to tigecycline molecules
